These results are taken from ChEMBL document CHEMBL4411307, “N,N'-diaryl-bishydrazones in a biphenyl platform: Broad spectrum antifungal agents” (Eur J Med Chem, 2019).

The nature of series [1]: Hemolytic activity in mouse RBC at 7.8 ug/ml after 1 hr relative to control. As to conditions: red blood cells (erythrocytes), read-out: Activity. The class given is ADME, cell-based, Erythrocyte.
Series [2] is described as follows: Selectivity index, ratio of CC50 for human A549 cells to MIC for fluconazole/ITC-resistant Candida albicans ATCC 10231. The class given is toxicity. As to conditions: read-out: Selectivity Index.
Series [3] can be described thus: Selectivity index, ratio of CC50 for human A549 cells to MIC for Aspergillus flavus ATCC MYA-3631. It counts as toxicity. The conditions noted are these: read-out: Selectivity Index.
Series [4] can be described thus: Selectivity index, ratio of CC50 for human A549 cells to MIC for Candida glabrata ATCC 2001. The class given is toxicity. As to conditions: read-out: Selectivity Index.
Series [5] concerns A549. Briefly: Cytotoxicity against human A549 cells after 24 hrs by resazurin based assay. The class given is cell-based. The conditions noted are these: a549, 24 h.
A short description of series [6]: Selectivity index, ratio of compound concentration showing <20 to <30% hemolysis in mouse RBC to MIC for Candida krusei ATCC 6258. It counts as toxicity. As to conditions: mouse red blood cells (RBC), read-out: Selectivity Index.
Series [7] concerns Candida albicans. Put plainly: Fungicidal activity against fluconazole/ITC-resistant Candida albicans ATCC 64124 assessed as reduction in fungal growth at 0.5 to 2 times MIC incubated for 24 hrs followed by replating on PDA plates measured after 48 hrs Time-Kill assay. The class given is functional, organism-based.
The nature of series [8]: Selectivity index, ratio of compound concentration showing <20 to <30% hemolysis in mouse RBC to MIC for fluconazole/ITC-resistant Candida albicans ATCC 10231. The class given is toxicity. The conditions noted are these: red blood cells (erythrocytes), read-out: Selectivity Index.
For series [9], the system named is Nakaseomyces glabratus. Put plainly: Antifungal activity against Candida glabrata ATCC 2001 measured after 48 hrs by CLSI M27-A3 protocol based method. It counts as functional. The conditions noted are these: CBS 138, 48 h.
The test system of series [10] is Candida albicans. Briefly: Antifungal activity against fluconazole/ITC-resistant Candida albicans ATCC MYA-1237 measured after 48 hrs by CLSI M27-A3 protocol based method. The class given is functional. As to conditions: ATCC MYA-1237, 48 h.
Series [11] in a line: Selectivity index, ratio of CC50 for human A549 cells to MIC for fluconazole/ITC-susceptible Candida albicans ATCC MYA-2310. The class given is toxicity. The conditions noted are these: read-out: Selectivity Index.
Series [12] relates to Candida albicans. Put plainly: Antifungal activity against fluconazole/ITC-resistant Candida albicans ATCC MYA-1003 measured after 48 hrs by CLSI M27-A3 protocol based method. The class given is functional. As to conditions: ATCC MYA-1003, 48 h.
Series [13] is described as follows: Hemolytic activity in mouse RBC at […] after 1 hr relative to control. Also: tested at 0.48 µg/mL. It counts as ADME, cell-based, Erythrocyte. As to conditions: red blood cells (erythrocytes), read-out: Activity.
For series [14], the system named is Candida albicans. Briefly: Fungicidal activity against fluconazole/ITC-resistant Candida albicans ATCC 10231 assessed as reduction in fungal growth at 0.5 to 2 times MIC incubated for 24 hrs followed by replating on PDA plates measured after 48 hrs Time-Kill assay. It counts as functional, organism-based.
Series [15] can be described thus: Selectivity index, ratio of compound concentration showing <20 to <30% hemolysis in mouse RBC to MIC for Aspergillus terreus ATCC MYA-3633. It counts as toxicity. As to conditions: mouse red blood cells (RBC), read-out: Selectivity Index.
Series [16] concerns Candida albicans. Put plainly: Antifungal activity against fluconazole/ITC-susceptible Candida albicans ATCC MYA-2310 measured after 48 hrs by CLSI M27-A3 protocol based method. The class given is functional. The conditions noted are these: ATCC MYA-2310, 48 h.
Series [17] deals with Aspergillus flavus. Put plainly: Antifungal activity against Aspergillus flavus ATCC MYA-3631 measured after 48 hrs by CLSI M38-A2 protocol based method. It counts as functional. As to conditions: ATCC MYA-3631, 48 h.
Series [18] can be described thus: Selectivity index, ratio of CC50 for human A549 cells to MIC for fluconazole/ITC-resistant Candida albicans ATCC 90819. It counts as toxicity. As to conditions: read-out: Selectivity Index.
Series [19] in a line: Hemolytic activity in mouse RBC at […] ug/ml after 1 hr relative to control. It counts as ADME, cell-based, Erythrocyte. The conditions noted are these: red blood cells (erythrocytes), read-out: Activity.
Series [20] has as its system Candida albicans. Put plainly: Antifungal activity against fluconazole/ITC-resistant Candida albicans ATCC 10231 measured after 48 hrs by CLSI M27-A3 protocol based method. The class given is functional. The conditions noted are these: ATCC 10231, 48 h.
Series [21] can be described thus: Hemolytic activity in mouse RBC at 31.3 ug/ml after 1 hr relative to control. It counts as ADME, cell-based, Erythrocyte. The conditions noted are these: red blood cells (erythrocytes), read-out: Activity.

≈ marks a conversion by molar mass, not a printed value. Calls of active or inactive are those of the source. The rule behind the calls is not given here.

In the case of `C/C(=N\Nc1ccc(F)cc1)c1ccc(-c2ccc(/C(C)=N/Nc3ccc(F)cc3)cc2)cc1`, the hemolysis at 1 h, 7.8 ug/ml in series [1] turned out to be 5.9%. The selectivity ratio was 8.5 in series [2]; 0.5 in series [3]; 1.1 in series [4]; 1 to 32 in [6]; 1 to 32 in series [8]; 8.5 in [11]. The selectivity ratio is 1 to 32 in series [15] and 2.1 in [18]. For the same compound, the CC50 (usually the concentration giving 50% cytotoxicity) in [5] was 16.6 µg/mL (≈ 36.5 µM). The result in series [7] and in [14] was Active. Further, the minimum inhibitory concentration (MIC) (as a rule, the least concentration at which growth counts as inhibited) in [9] is 15.6 µg/mL (≈ 34.3 µM); in series [10], 7.8 µg/mL (≈ 17.2 µM); in series [12], 7.8 µg/mL (≈ 17.2 µM); in series [16] it was 1.95 µg/mL (≈ 4.29 µM); in series [17], over 31.3 µg/mL; in [20], 1.95 µg/mL (≈ 4.29 µM). For the same compound, the hemolysis at 1 h, […] in series [13] came to 0%. Further, in series [19] (at 15.6 µg/mL), the hemolysis at 1 h, 15.6 ug/ml was 7.4%. In addition, the hemolysis at 1 h, 0.975 ug/ml in series [19] came to 1.4%. Besides, in [21], the hemolysis at 1 h, 31.3 ug/ml was found to be 9.5%.
